# Laboratory results taken from patent US6699989B1, “Antiviral and antimicrobial guanidine or biguanidine derivatives” (priority 2000, dated 2004).
# “Also recorded” adds a separate entry of the source. Read-outs that look alike come from different tables or passages of the source.
# How the values were obtained:
# [1] = system: Escherichia coli ATCC 11229; assay: Microdilution broth MIC assay; type: cell-based; settings: ATCC11229, Ec, Mueller Hinton broth, about 17 hr
# Experimental: (§1) Test organisms. The test organisms are listed in Table 5 along with their source. Prior to assay, overnight bacterial slant cultures were used to inoculate Mueller Hinton broth followed by incubation for 5-7 hr. Each culture was then standardized turbidimetrically to a viable count of about 10^6 colony forming units/ml and used to inoculate the mirotiter assay plates. The viable count after addition to the plates was about 5×10^5 CFU/ml.
# (§2) Experimental design. The MIC of the test compounds for the bacterial strains was determined with a microdilution broth assay in 96 well microtiter plates. The test compounds were dissolved in DMSO and then diluted 10-fold in assay medium (Mueller Hinton broth) to obtain final concentrations of 0.128, 1.28, 12.8, and 128 μg/ml. A viability control containing DMSO, diluted in the same manner as the test compounds, was used to confirm that the DMSO was not inhibitory by itself. Trimethoprim (TMP) was used as a positive drug control. The assay plates were incubated at 37° C. for about 17 hr and each assay well observed visually for growth. The MIC was determined at the lowest concentration of drug which inhibited growth. [drawing 32]
# [2] = system: Streptococcus pneumoniae ATCC 6303; assay: Microdilution broth MIC assay; type: cell-based; settings: ATCC6303, Sp, Mueller Hinton broth, about 17 hr
# Experimental: as §1, §2
# [3] = system: Staphylococcus epidermidis ATCC 35984; assay: Microdilution broth MIC assay; type: cell-based; settings: ATCC35984, Se, Mueller Hinton broth, about 17 hr
# Experimental: as §1, §2
# [4] = system: Proteus mirabilis ATCC 9921; assay: Microdilution broth MIC assay; type: cell-based; settings: ATCC9921, Pm, Mueller Hinton broth, about 17 hr
# Experimental: as §1, §2
# [5] = system: Klebsiella pneumoniae ATCC 4352; assay: Microdilution broth MIC assay; type: cell-based; settings: ATCC4352, Kp, Mueller Hinton broth, about 17 hr
# Experimental: as §1, §2
# [6] = system: Staphylococcus aureus ATCC 6538; assay: Microdilution broth MIC assay; type: cell-based; settings: ATCC6538, Sa, Mueller Hinton broth, about 17 hr
# Experimental: as §1, §2
# [7] = system: Pseudomonas aeruginosa ATCC 15442; assay: Microdilution broth MIC assay; type: cell-based; settings: ATCC15442, Pa, Mueller Hinton broth, about 17 hr
# Experimental: as §1, §2
# HIV-1 [8] = assay: microbe, parasite or virus in culture; settings: Human immunodeficiency virus 1, CEM-SS
# Experimental: (§3) This is a cytoprotection assay that uses the T-lymphoblastoid tumor cell line CEM-SS and laboratory adapted strains of HIV-1. Upon infection with HIV, the CEM-SS cells form syncytia and eventually die, producing large amounts of progeny virus over the course of 4-6 days at the standard multiplicity of infection (0.01). The antiviral assay measures the ability of a given compound to inhibit the HIV-induced cell killing. […] The activity of the compound is evaluated by measuring cell viability at 6 days post-infection and comparing the viability to that obtained in cell control (cells only), virus control (cells and virus only) and toxicity control (cells and compound only) wells.
# (§4) Efficacy of the compound in cell culture is measured by increased cell viability in CEM-SS assays or reduction in virus production in PBMC assays. The data obtained yields a dose response curve which can be evaluated to determine doses which yield 25%, 50% and 95% protection from HIV-induced cell killing or virus production. […] These concentrations are reported as the TC25, TC50 and TC95 values. The ratio of toxicity to efficacy constitutes the therapeutic index TC50/IC50.
# (§5) CEM-SS cells assay measures the ability of the compound to inhibit HIV induced cell killing. The cells are stained at 6 days post-infection with the tetrazolium dye XTT which is converted to a colored formazan product by the mitochondria of viable cells. Protection from cell killing afforded by the test compound is measured by comparison to both cell controls and virus controls. Cell killing in this system is directly related to the amount of virus produced by the infected cells and XTT-formazan production is proportional to the number of viable cells in each well. Toxicity of the compound to the target cells is measured in parallel.
# (§6) CEM-SS cells (or other established human cell line used in these experiments) were passaged in T-150 flasks for use in the assay. On the day preceding the assay, the cells were split 1:2 to assure they would be in an exponential growth phase at time of infection. On the day of assay the cells were washed twice with tissue culture medium and resuspended in fresh tissue culture medium. Total cell and viability counting was performed using hemacytometer and trypan blue dye exclusion. Cell viability was greater than 95% for the cells to be utilized in the assay. The cells were pelleted and resuspended at 2.5×10^4 cells per ml in tissue culture medium. Cells were added to the drug-containing plates in a volume of 50 μl.
# (§7) A pretitered aliquot of virus was removed from the freezer (−80° C.) and allowed to thaw slowly to room temperature in a biological safety cabinet. The virus was resuspended and diluted into tissue culture medium such that the amount of virus added to each well in a volume of 50 μl will be the amount determined to give complete cell killing at 6 days post-infection. In general the virus pools produced with the IIIB isolate of HIV required the addition of 5 μl of virus per well.
# (§8) Each plate contained cell control wells (cells only), virus control wells (cells plus virus), drug toxicity control wells (cells plus drug only), drug colorimetric control wells (drug only) as well as experimental wells (drug plus cells plus virus).
# (§9) After 6 days of incubation at 37° C. in a 5% CO2 incubator the test plates were analyzed by staining with the tetrazolium dye XTT. XTT-tetrazolium is metabolized by the mitochondrial enzymes of metabolically active cells to a soluble formazan product, allowing the rapid quantitative analysis of the inhibition of HIV-induced cell killing by anti-HIV test substances. On day 6 post-infection plates were removed from the incubator and observed.
# PBMCs = assay: Toxicity to PBMC, XTT; type: cell-based, human
# HIV-1 [9] = system: HIV-1
# Experimental: as §3, §4, §5, §6, §7, §8, §9
# CEM-SS cells = type: cell-based
structure (smiles),measurement,setting,value
N=C(NCCCCCCNC(=N)NC(=N)N1CCN(c2cc3c(cc2F)c(=O)c(C(=O)O)cn3C2CC2)CC1)NC(=N)N1CCN(c2cc3c(cc2F)c(=O)c(C(=O)O)cn3C2CC2)CC1 [BVS-10A],MIC,[1],0.128 to 1.28 µg/mL
same,MIC,[2],1.28 to 12.8 µg/mL
same,MIC,[3],< 0.128 µg/mL
same,MIC,[4],0.128 to 1.28 µg/mL
same,MIC,[5],< 0.128 µg/mL
same,MIC,[6],< 0.128 µg/mL
same,MIC,[7],1.28 to 12.8 µg/mL
same,IC50,HIV-1 [8],16.6 µg/mL
same,IC50,HIV-1 [8]; read-out: 50% inhibition of cell killing,12 µg/mL
same,IC50,HIV-1 [8]; read-out: calculated IC50,16.6 µg/mL
same,TOXICITY % CC,"PBMCs; 0.01 μg/ml, PBMC",103.2%
same,TOXICITY VALUES (XTT O.D. @ 450/650 nm) MEAN,"PBMCs; 0.01 μg/ml, PBMC",3.415 O.D.
same,TOXICITY % CC,"PBMCs; 0.032 μg/ml, PBMC",103.6%
same,TOXICITY VALUES (XTT O.D. @ 450/650 nm) MEAN,"PBMCs; 0.032 μg/ml, PBMC",3.426 O.D.
same,TOXICITY % CC,"PBMCs; 0.1 μg/ml, PBMC",97.1%
same,TOXICITY VALUES (XTT O.D. @ 450/650 nm) MEAN,"PBMCs; 0.1 μg/ml, PBMC",3.214 O.D.
same,TOXICITY % CC,"PBMCs; 0.32 μg/ml, PBMC",100.9%
same,TOXICITY VALUES (XTT O.D. @ 450/650 nm) MEAN,"PBMCs; 0.32 μg/ml, PBMC",3.339 O.D.
same,TOXICITY % CC,"PBMCs; 1 μg/ml, PBMC",96.2%
same,TOXICITY VALUES (XTT O.D. @ 450/650 nm) MEAN,"PBMCs; 1 μg/ml, PBMC",3.181 O.D.
same,TOXICITY % CC,"PBMCs; 3.2 μg/ml, PBMC",103.5%
same,TOXICITY VALUES (XTT O.D. @ 450/650 nm) MEAN,"PBMCs; 3.2 μg/ml, PBMC",3.424 O.D.
same,TOXICITY % CC,"PBMCs; 10 μg/ml, PBMC",108.3%
same,TOXICITY VALUES (XTT O.D. @ 450/650 nm) MEAN,"PBMCs; 10 μg/ml, PBMC",3.583 O.D.
same,TOXICITY % CC,"PBMCs; 32 μg/ml, PBMC",97.3%
same,TOXICITY VALUES (XTT O.D. @ 450/650 nm) MEAN,"PBMCs; 32 μg/ml, PBMC",3.220 O.D.
same,TOXICITY % CC,"PBMCs; 100 μg/ml, PBMC",51.2%
same,TOXICITY VALUES (XTT O.D. @ 450/650 nm) MEAN,"PBMCs; 100 μg/ml, PBMC",1.695 O.D.
same,50% inhibition of cell growth,PBMCs; PBMC cultures,approximately 100 μg/mL
same,TC50,"PBMCs; PBMC, XTT",TC50 (μg/ml) = >100
same,toxicity in PBMCs,PBMCs; at 100 μg/mL,Toxicity was detected
same,% RED. IN VIRAL CPE,"HIV-1 [9]; 0.00032 uG/mL, CEM-SS, HIV1 RF",3%
same,ANTIVIRAL TEST VALUES MEAN O.D.,"HIV-1 [9]; 0.00032 uG/mL, CEM-SS, HIV1 RF",0.038 O.D.
same,% RED. IN VIRAL CPE,"HIV-1 [9]; 0.001 uG/mL, CEM-SS, HIV1 RF",4%
same,ANTIVIRAL TEST VALUES MEAN O.D.,"HIV-1 [9]; 0.001 uG/mL, CEM-SS, HIV1 RF",0.049 O.D.
same,% RED. IN VIRAL CPE,"HIV-1 [9]; 0.0032 uG/mL, CEM-SS, HIV1 RF",1%
same,ANTIVIRAL TEST VALUES MEAN O.D.,"HIV-1 [9]; 0.0032 uG/mL, CEM-SS, HIV1 RF",0.009 O.D.
same,% RED. IN VIRAL CPE,"HIV-1 [9]; 0.01 uG/mL, CEM-SS, HIV1 RF",4%
same,ANTIVIRAL TEST VALUES MEAN O.D.,"HIV-1 [9]; 0.01 uG/mL, CEM-SS, HIV1 RF",0.042 O.D.
same,% RED. IN VIRAL CPE,"HIV-1 [9]; 0.032 uG/mL, CEM-SS, HIV1 RF",7%
same,ANTIVIRAL TEST VALUES MEAN O.D.,"HIV-1 [9]; 0.032 uG/mL, CEM-SS, HIV1 RF",0.083 O.D.
same,% RED. IN VIRAL CPE,"HIV-1 [9]; 0.1 uG/mL, CEM-SS, HIV1 RF",2%
same,ANTIVIRAL TEST VALUES MEAN O.D.,"HIV-1 [9]; 0.1 uG/mL, CEM-SS, HIV1 RF",0.021 O.D.
same,% RED. IN VIRAL CPE,"HIV-1 [9]; 0.32 uG/mL, CEM-SS, HIV1 RF",4%
same,ANTIVIRAL TEST VALUES MEAN O.D.,"HIV-1 [9]; 0.32 uG/mL, CEM-SS, HIV1 RF",0.051 O.D.
same,% RED. IN VIRAL CPE,"HIV-1 [9]; 1 uG/mL, CEM-SS, HIV1 RF",9%
same,ANTIVIRAL TEST VALUES MEAN O.D.,"HIV-1 [9]; 1 uG/mL, CEM-SS, HIV1 RF",0.103 O.D.
same,% RED. IN VIRAL CPE,"HIV-1 [9]; 3.2 uG/mL, CEM-SS, HIV1 RF",2%
same,ANTIVIRAL TEST VALUES MEAN O.D.,"HIV-1 [9]; 3.2 uG/mL, CEM-SS, HIV1 RF",0.025 O.D.
same,% RED. IN VIRAL CPE,"HIV-1 [9]; 10 uG/mL, CEM-SS, HIV1 RF",11%
same,ANTIVIRAL TEST VALUES MEAN O.D.,"HIV-1 [9]; 10 uG/mL, CEM-SS, HIV1 RF",0.123 O.D.
same,% RED. IN VIRAL CPE,"HIV-1 [9]; 32 uG/mL, CEM-SS, HIV1 RF",100%
same,ANTIVIRAL TEST VALUES MEAN O.D.,"HIV-1 [9]; 32 uG/mL, CEM-SS, HIV1 RF",1.515 O.D.
same,% RED. IN VIRAL CPE,"HIV-1 [9]; 32 uG/mL, CEM-SS, HIV1 RF, listed as BVS10A",100%
same,% RED. IN VIRAL CPE,"HIV-1 [9]; 100 uG/mL, CEM-SS, HIV1 RF",100%
same,ANTIVIRAL TEST VALUES MEAN O.D.,"HIV-1 [9]; 100 uG/mL, CEM-SS, HIV1 RF",1.717 O.D.
same,% RED. IN VIRAL CPE,"HIV-1 [9]; 100 uG/mL, CEM-SS, HIV1 RF, listed as BVS10A",100%
same,IC95,HIV-1 [9]; CEM-SS cells,30 µg/mL
same,IC 25%,"HIV-1 [9]; CEM-SS, HIV1 RF",12.00 UG/mL
same,IC 95%,"HIV-1 [9]; CEM-SS, HIV1 RF",30.00 UG/mL
same,% CELL VIABILITY,"CEM-SS cells; 0.00032 uG/mL, CEM-SS",100%
same,CYTOTOXICITY TEST VALUES MEAN O.D.,"CEM-SS cells; 0.00032 uG/mL, CEM-SS",1.317 O.D.
same,% CELL VIABILITY,"CEM-SS cells; 0.001 uG/mL, CEM-SS",100%
same,CYTOTOXICITY TEST VALUES MEAN O.D.,"CEM-SS cells; 0.001 uG/mL, CEM-SS",1.323 O.D.
same,% CELL VIABILITY,"CEM-SS cells; 0.0032 uG/mL, CEM-SS",100%
same,CYTOTOXICITY TEST VALUES MEAN O.D.,"CEM-SS cells; 0.0032 uG/mL, CEM-SS",1.307 O.D.
same,% CELL VIABILITY,"CEM-SS cells; 0.01 uG/mL, CEM-SS",100%
same,CYTOTOXICITY TEST VALUES MEAN O.D.,"CEM-SS cells; 0.01 uG/mL, CEM-SS",1.364 O.D.
same,% CELL VIABILITY,"CEM-SS cells; 0.032 uG/mL, CEM-SS",100%
same,CYTOTOXICITY TEST VALUES MEAN O.D.,"CEM-SS cells; 0.032 uG/mL, CEM-SS",1.339 O.D.
same,% CELL VIABILITY,"CEM-SS cells; 0.1 uG/mL, CEM-SS",100%
same,CYTOTOXICITY TEST VALUES MEAN O.D.,"CEM-SS cells; 0.1 uG/mL, CEM-SS",1.369 O.D.
same,% CELL VIABILITY,"CEM-SS cells; 0.32 uG/mL, CEM-SS",100%
same,CYTOTOXICITY TEST VALUES MEAN O.D.,"CEM-SS cells; 0.32 uG/mL, CEM-SS",1.385 O.D.
same,% CELL VIABILITY,"CEM-SS cells; 1 uG/mL, CEM-SS",100%
same,CYTOTOXICITY TEST VALUES MEAN O.D.,"CEM-SS cells; 1 uG/mL, CEM-SS",1.512 O.D.
same,% CELL VIABILITY,"CEM-SS cells; 3.2 uG/mL, CEM-SS",100%
same,CYTOTOXICITY TEST VALUES MEAN O.D.,"CEM-SS cells; 3.2 uG/mL, CEM-SS",1.556 O.D.
same,% CELL VIABILITY,"CEM-SS cells; 10 uG/mL, CEM-SS",100%
same,CYTOTOXICITY TEST VALUES MEAN O.D.,"CEM-SS cells; 10 uG/mL, CEM-SS",1.804 O.D.
same,% CELL VIABILITY,"CEM-SS cells; 32 uG/mL, CEM-SS",100%
same,CYTOTOXICITY TEST VALUES MEAN O.D.,"CEM-SS cells; 32 uG/mL, CEM-SS",2.390 O.D.
same,% CELL VIABILITY,"CEM-SS cells; 100 uG/mL, CEM-SS",100%
same,CYTOTOXICITY TEST VALUES MEAN O.D.,"CEM-SS cells; 100 uG/mL, CEM-SS",1.797 O.D.
same,TC 25%,"CEM-SS cells; CEM-SS, XTT",>100.00 UG/mL
same,TC 50%,"CEM-SS cells; CEM-SS, XTT",>100.00 UG/mL
same,TC 95%,"CEM-SS cells; CEM-SS, XTT",>100.00 UG/mL
same,toxicity in CEM-SS cells,CEM-SS cells; at concentrations up to 100 μg/mL,nontoxic; also recorded: No toxicity
